Assays:
[1] = target: T1, NMDA receptor (GRIN1/GRIN2A subunits) (Homo sapiens, UniProt Q05586+Q12879); assay: NMDA potentiation, whole-cell patch clamp of HEK cells expressing NMDA receptor; format: cell-based; settings: for NMDA 1a2A (%) Potentiation 0.1 uM: 0.1 uM compound; for NMDA 1a2A (%) Potentiation 0.1 uM / NMDA 1a2A (%) Potentiation 1 uM / activation at 0.1 µM / activation at 1 µM: HEK cells, 30 μM NMDA and 5.0 μM Glycine; for NMDA 1a2A (%) Potentiation 1 uM: 1 uM compound; for activation at 0.1 µM: HEK293, 0.1 uM compound, read-out: NMDA 1a2A (%) Potentiation 0.1 uM; for activation at 1 µM: HEK293, 1 uM compound, read-out: NMDA 1a2A (%) Potentiation 1 uM
T1 construct: expressed in transfected cells
Method: NMDA potentiation was assessed using either whole cell patch clamp of mammalian cells which expressed NMDA receptors, or using two-electrode voltage clamp (TEVC) of Xenopus Laevis oocytes expressing NMDA receptors.
NMDA/Glycine peak and steady-state currents were recorded from stably transfected cells expressing the NMDA receptor and the modulatory effects of the test items on these currents were investigated.
Cells were stably transfected with human GRIN1 (variant NR1-3). These cells were transiently transfected (Lipofectamine™) with GRIN2A cDNA and CD8 (pLeu) antigene cDNA. About 24-72 hours following transfection 1 μl Dynabeads M-45 CD8 was added to identify successfully transfected cells (Jurman et al., Biotechniques (1994) 17:876-881). Cells were passaged to a confluence of 50-80%. Cells were seeded onto Poly-L-Lysine coated cover slips covered with culture complete medium in a 35 mm culture dish. Confluent clusters of cells are electrically coupled (Pritchett et al., Science (1988), 242:1306-8). Because responses in distant cells are not adequately voltage clamped and because of uncertainties about the extent of coupling (Verdoorn et al., Neuron (1990), 4:919-28), cells were cultivated at a density that enables single cells (without visible connections to neighboring cells) to be measured. Cells were incubated at 37° C. in a humidified atmosphere with 5% CO2 (rel. humidity about 95%). The cells were continuously maintained in and passaged in sterile culture flasks containing a 1:1 mixture of Dulbecco's modified eagle medium and nutrient mixture F-12 (D-MEM/F-12 1×, liquid, with L-Glutamine) supplemented with 9% fetal bovine serum and 0.9% Penicillin/Streptomycin solution. The complete medium was supplemented with 3.0 μg/ml Puromycin.
Whole cell currents were measured with HEKA EPC-10 amplifiers using PatchMaster software. Cell culture dishes for recordings were placed on the dish holder of the microscope and continuously perfused (1 ml/min) with “bath solution” (NaCl 137 mM, KCl 4 mM, CaCl2 1.8 mM, MgCl2 1 mM, HEPES 10 mM, D-Glucose 10 mM, pH (NaOH) 7.4). All solutions applied to cells including the pipette solution were maintained at room temperature (19° C.-30° C.). After formation of a Gigaohm seal between the patch electrodes and transfected individual HEK 293 cells (pipette resistance range: 2.5 MΩ-6.0 MΩ; seal resistance range: >1 GQ) the cell membrane across the pipette tip was ruptured to assure electrical access to the cell interior (whole-cell patch-configuration). At this point the bath solution is switched to “NMDA bath solution” (NaCl 137 mM, KCl 4 mM, CaCl2 2.8 mM, HEPES 10 mM, D-Glucose 10 mM, Cremophore 0.02%, pH (NaOH) 7.4). NMDA inward currents were measured upon application of 30 μM NMDA (and 5.0 μM Glycine) to patch-clamped cells (2 applications) for 5 s. The cells were voltage clamped at a holding potential of −80 mV. For the analysis of test articles, NMDA receptors were stimulated by 30 μM NMDA and 5.0 μM Glycine after sequential pre-incubation of increasing concentrations of the test article. Pre-incubation duration was 30 s. Stimulation duration was 5 s Test articles were dissolved in DMSO to form stock solutions of 0.1 mM and 1 mM. Test articles were diluted to 0.1 μM and 1 μM in “NMDA bath solution”. Both concentrations of test articles were tested on each cell. The same concentration was applied at least three times or until the steady state current amplitude was reached. Every day one cell was tested with 50 μM PREGS (positive control) using the same application protocol to test whether cells were successfully transfected with NMDA receptors.

NMDA (NR1a/NR2A) = NMDA (NR1a/NR2A) (Homo sapiens, UniProt Q05586+Q12879); settings: cited from earlier work
Chain of NMDA (NR1a/NR2A) (Q12879 23-1464, other chains not shown): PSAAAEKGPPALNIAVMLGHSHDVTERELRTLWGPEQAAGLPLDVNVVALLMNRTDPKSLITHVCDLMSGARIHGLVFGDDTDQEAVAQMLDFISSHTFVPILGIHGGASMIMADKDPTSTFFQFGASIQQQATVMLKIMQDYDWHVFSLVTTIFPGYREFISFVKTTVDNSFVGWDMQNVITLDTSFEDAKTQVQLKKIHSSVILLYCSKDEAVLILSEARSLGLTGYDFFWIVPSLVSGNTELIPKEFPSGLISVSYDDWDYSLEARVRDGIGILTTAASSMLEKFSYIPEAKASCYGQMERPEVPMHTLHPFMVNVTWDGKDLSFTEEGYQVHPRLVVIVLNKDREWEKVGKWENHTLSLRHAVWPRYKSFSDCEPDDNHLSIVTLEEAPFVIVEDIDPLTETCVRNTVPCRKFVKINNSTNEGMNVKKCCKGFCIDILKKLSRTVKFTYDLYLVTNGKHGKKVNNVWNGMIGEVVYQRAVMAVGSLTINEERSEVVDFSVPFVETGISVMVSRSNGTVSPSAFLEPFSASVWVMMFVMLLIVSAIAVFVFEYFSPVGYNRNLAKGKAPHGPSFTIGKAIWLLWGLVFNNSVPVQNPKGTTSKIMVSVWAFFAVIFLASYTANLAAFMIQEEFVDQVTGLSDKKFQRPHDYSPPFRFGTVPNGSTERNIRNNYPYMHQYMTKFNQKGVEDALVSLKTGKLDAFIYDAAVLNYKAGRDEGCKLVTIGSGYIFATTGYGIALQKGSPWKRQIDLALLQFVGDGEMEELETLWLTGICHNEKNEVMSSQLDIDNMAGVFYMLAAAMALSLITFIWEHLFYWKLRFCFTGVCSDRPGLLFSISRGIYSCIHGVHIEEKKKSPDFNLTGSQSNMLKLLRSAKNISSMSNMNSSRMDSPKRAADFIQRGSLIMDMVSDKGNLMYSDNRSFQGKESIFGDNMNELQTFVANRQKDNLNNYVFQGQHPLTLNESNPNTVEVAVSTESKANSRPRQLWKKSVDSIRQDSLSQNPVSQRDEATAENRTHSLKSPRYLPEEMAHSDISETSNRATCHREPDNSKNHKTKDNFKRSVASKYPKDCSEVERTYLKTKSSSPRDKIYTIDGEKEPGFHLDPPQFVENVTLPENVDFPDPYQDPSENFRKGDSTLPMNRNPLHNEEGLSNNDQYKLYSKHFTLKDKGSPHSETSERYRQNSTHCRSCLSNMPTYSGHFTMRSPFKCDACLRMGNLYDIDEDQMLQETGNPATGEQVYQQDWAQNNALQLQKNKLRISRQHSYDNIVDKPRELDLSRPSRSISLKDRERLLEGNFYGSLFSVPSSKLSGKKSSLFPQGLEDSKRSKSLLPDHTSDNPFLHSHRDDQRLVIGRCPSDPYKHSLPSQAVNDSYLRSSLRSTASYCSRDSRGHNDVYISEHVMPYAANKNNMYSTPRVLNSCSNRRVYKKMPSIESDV

T1 sequence (Q12879 23-1464, other chains not shown): as above

SMILES: CCC(C)(O)CC[C@@H](C)[C@H]1CC[C@H]2[C@@H]3CC[C@H]4C[C@@](C)(O)CC[C@]4(C)[C@H]3CC[C@]12C (stereo partly shown) [Comparison compound 5, reference compound]
- NMDA 1a2A (%) Potentiation 0.1 uM [1]: A (“A” indicates 10-75% potentiation)
- NMDA 1a2A (%) Potentiation 1 uM [1]: A (“A” indicates 10-75% potentiation)

SMILES: C[C@H](CCC(C)(O)C1CC1)[C@H]1CC[C@H]2[C@@H]3CC=C4C[C@@](C)(O)CC[C@]4(C)[C@H]3CC[C@]12C (stereo partly shown) [Compound 9-2]
- activation at 0.1 µM [1]: 150 to 250%
- activation at 1 µM [1]: 150 to 250%

SMILES: CCCCC(C)(O)CC[C@@H](C)[C@H]1CC[C@H]2[C@@H]3CC=C4C[C@@](C)(O)CC[C@]4(C)[C@H]3CC[C@]12C (stereo partly shown) [Compound 7-2]
- activation at 0.1 µM [1]: 10 to 75%
- activation at 1 µM [1]: 75 to 150%

SMILES: CCC(C)(O)CC[C@@H](C)[C@H]1CC[C@H]2[C@@H]3CC=C4C[C@@](C)(O)CC[C@]4(C)[C@H]3CC[C@]12C (stereo partly shown) [Compound 4-6]
- activation at 0.1 µM [1]: 150 to 250%
- activation at 1 µM [1]: 150 to 250%

SMILES: C[C@H](CC[C@H](O)C(F)(F)F)[C@H]1CC[C@H]2[C@@H]3CC=C4C[C@@](C)(O)CC[C@]4(C)[C@H]3CC[C@]12C [Compound 1-15]
- activation at 0.1 µM [1]: 75 to 150%
- activation at 1 µM [1]: 150 to 250%

SMILES: C[C@H](CCC(O)C(F)(F)F)[C@H]1CC[C@H]2[C@@H]3CC=C4C[C@@](C)(O)CC[C@]4(C)[C@H]3CC[C@]12C (stereo partly shown) [Compound 1-11]
- activation at 0.1 µM [1]: 150 to 250%
- activation at 1 µM [1]: 150 to 250%

SMILES: C[C@H](CCC(O)C(F)(F)F)[C@H]1CC[C@H]2[C@@H]3CC[C@H]4C[C@@](C)(O)CC[C@]4(C)[C@H]3CC[C@]12C (stereo partly shown) [Compound 1-12]
- activation at 0.1 µM [1]: 10 to 75%
- activation at 1 µM [1]: 75 to 150%

SMILES: CCCC(C)(O)CC[C@@H](C)[C@H]1CC[C@H]2[C@@H]3CC[C@H]4C[C@@](C)(O)CC[C@]4(C)[C@H]3CC[C@]12C (stereo partly shown) [Compound 5-3]
- activation at 0.1 µM [1]: 10 to 75%
- activation at 1 µM [1]: 75 to 150%

SMILES: CC(C)C(C)(O)CC[C@@H](C)[C@H]1CC[C@H]2[C@@H]3CC[C@H]4C[C@@](C)(O)CC[C@]4(C)[C@H]3CC[C@]12C (stereo partly shown) [Compound 8-3]
- activation at 0.1 µM [1]: 75 to 150%
- activation at 1 µM [1]: > 250%

SMILES: CC(CCC(C)(C)O)[C@H]1CC[C@H]2[C@@H]3CC=C4C[C@@](C)(O)CC[C@]4(C)[C@H]3CC[C@]12C (stereo partly shown) [Comparison compound 2, reference compound]
- activation at 0.1 µM [1]: 75 to 150%
- activation at 1 µM [1]: > 250%

SMILES: CC(O)CCC(C)[C@H]1CC[C@H]2[C@@H]3CC=C4C[C@@H](O)CC[C@]4(C)[C@H]3CC[C@]12C (stereo partly shown) [Comparison compound 1, reference compound]
- activation at 0.1 µM [1]: 10 to 75%
- activation at 1 µM [1]: 75 to 150%

SMILES: C=CCC(C)(O)CC[C@@H](C)[C@H]1CC[C@H]2[C@@H]3CC=C4C[C@@](C)(O)CC[C@]4(C)[C@H]3CC[C@]12C (stereo partly shown) [Compound 6-2]
- activation at 0.1 µM [1]: 75 to 150%
- activation at 1 µM [1]: 150 to 250%

SMILES: CC(C)C(C)(O)CC[C@@H](C)[C@H]1CC[C@H]2[C@@H]3CC=C4C[C@@](C)(O)CC[C@]4(C)[C@H]3CC[C@]12C (stereo partly shown) [Compound 8-2]
- activation at 0.1 µM [1]: 75 to 150%
- activation at 1 µM [1]: 150 to 250%

SMILES: CC(C)(O)CCC[C@H]1CC[C@H]2[C@@H]3CC[C@H]4C[C@@](C)(O)CC[C@]4(C)[C@H]3CC[C@]12C [Comparison compound 4, reference compound]
- activation at 0.1 µM [1]: 10 to 75%
- activation at 1 µM [1]: 75 to 150%
- loss of NMDA potentiation compared to Comparison Compound 3 ([1]; measured at 0.1 μM concentration): five fold

SMILES: C[C@H](CCC(C)(C)O)[C@H]1CC[C@H]2[C@@H]3CC=C4C[C@@H](O)CC[C@]4(C)[C@H]3CC[C@]12C (stereo in doubt) [Org-1, reference compound]
- modulation of NMDA (NR1a/NR2A) (NMDA (NR1a/NR2A)): positive modulator
- selectivity NMDA over GABAA (NMDA (NR1a/NR2A)): selectively modulate NMDA over GABAA
- activation at 0.1 µM [1]: 10 to 75%
- activation at 1 µM [1]: 150 to 250%

SMILES: CCCC(C)(O)CC[C@@H](C)[C@H]1CC[C@H]2[C@@H]3CC=C4C[C@@](C)(O)CC[C@]4(C)[C@H]3CC[C@]12C (stereo partly shown) [Compound 5-2]
- activation at 0.1 µM [1]: 75 to 150%
- activation at 1 µM [1]: 150 to 250%

SMILES: CCC(C)(O)CC[C@@H](C)[C@H]1CC[C@H]2[C@@H]3CC[C@H]4C[C@@](C)(O)CC[C@]4(C)[C@H]3CC[C@]12C (stereo partly shown) [Compound 4-7]
- NMDA 1a2A (%) Potentiation 0.1 uM [1]: B (“B” indicates potentiation of >75% to 150%)
- NMDA 1a2A (%) Potentiation 1 uM [1]: C (“C” indicates potentiation of >150 to 250%)
